Among the data in article PMC7026498, “GABAA Receptor β2E155 Residue Located at the Agonist-Binding Site Is Involved in the Receptor Gating” (Frontiers in Cellular Neuroscience, 2020) are EC50 values, retold here.

pEC50: −log10 of the molar value.

Assay [1] concerns the target T1, GABAA receptor α1β2γ2L (β2 subunit) (Rattus norvegicus, UniProt P62813+P63138).
T1 construct: gene Gabrb2; recombinant α1β2γ2L receptor in HEK293 cells; with GABAA receptor α1 and γ2L subunits
The experiment in a line: whole-cell patch-clamp dose-response. The assay is classed as cell-based. Background: Patch clamp records ionic current or voltage across a cell membrane.

The target in assay [2] is T2, GABAA receptor α1β2E155Cγ2L (β2 subunit) (Rattus norvegicus, UniProt P62813+P63138, P63138:E179C).
T2 construct: gene Gabrb2; recombinant α1β2E155Cγ2L receptor in HEK293 cells; with GABAA receptor α1 and γ2L subunits
The assay can be described thus: whole-cell patch-clamp dose-response (extrapolated Hill fit) and single-channel recording. The assay is classed as cell-based.

T1 sequence (P63138 26-474): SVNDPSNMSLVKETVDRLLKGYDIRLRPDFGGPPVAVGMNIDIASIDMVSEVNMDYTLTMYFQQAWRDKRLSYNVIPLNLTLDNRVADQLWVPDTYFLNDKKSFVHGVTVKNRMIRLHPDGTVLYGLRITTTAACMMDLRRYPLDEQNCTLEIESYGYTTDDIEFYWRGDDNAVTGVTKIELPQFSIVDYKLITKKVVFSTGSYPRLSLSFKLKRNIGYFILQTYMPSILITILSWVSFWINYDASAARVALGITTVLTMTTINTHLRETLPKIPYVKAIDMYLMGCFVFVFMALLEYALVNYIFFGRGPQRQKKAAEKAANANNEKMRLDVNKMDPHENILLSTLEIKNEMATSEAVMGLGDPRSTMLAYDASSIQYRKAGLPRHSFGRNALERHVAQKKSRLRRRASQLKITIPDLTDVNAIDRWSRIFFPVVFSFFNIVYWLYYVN
T1 sequence (P62813 28-455): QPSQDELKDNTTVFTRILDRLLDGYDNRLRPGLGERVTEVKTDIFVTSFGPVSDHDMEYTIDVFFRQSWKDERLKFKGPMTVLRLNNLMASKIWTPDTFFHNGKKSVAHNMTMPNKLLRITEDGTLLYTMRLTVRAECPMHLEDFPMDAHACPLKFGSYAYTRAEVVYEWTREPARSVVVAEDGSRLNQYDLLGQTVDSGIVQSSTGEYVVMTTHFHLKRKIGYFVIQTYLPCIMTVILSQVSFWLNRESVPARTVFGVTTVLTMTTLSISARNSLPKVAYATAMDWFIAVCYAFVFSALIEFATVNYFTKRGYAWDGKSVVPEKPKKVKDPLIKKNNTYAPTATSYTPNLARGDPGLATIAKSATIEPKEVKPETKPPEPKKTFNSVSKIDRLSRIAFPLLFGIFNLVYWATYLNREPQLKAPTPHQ
T1 sequence (P18508 39-466 partner): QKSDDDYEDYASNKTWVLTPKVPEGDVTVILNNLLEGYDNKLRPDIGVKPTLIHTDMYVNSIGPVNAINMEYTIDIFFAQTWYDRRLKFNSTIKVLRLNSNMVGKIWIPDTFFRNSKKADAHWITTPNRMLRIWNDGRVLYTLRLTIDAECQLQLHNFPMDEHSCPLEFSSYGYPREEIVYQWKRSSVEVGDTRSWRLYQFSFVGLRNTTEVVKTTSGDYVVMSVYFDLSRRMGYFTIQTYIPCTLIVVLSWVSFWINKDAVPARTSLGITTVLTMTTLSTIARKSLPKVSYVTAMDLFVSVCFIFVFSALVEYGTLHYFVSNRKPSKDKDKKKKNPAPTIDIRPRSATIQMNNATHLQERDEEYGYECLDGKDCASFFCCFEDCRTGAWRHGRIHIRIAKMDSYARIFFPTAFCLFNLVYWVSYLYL
T2 sequence (P63138 26-474 E179C): as the sequence (P63138 26-474) above, with E154C counted along it
T2 sequence (P62813 28-455): as the sequence (P62813 28-455) above
T2 sequence (P18508 39-466 partner): as the sequence (P18508 39-466 partner) above

As for `NCc1cc(=O)[nH]o1` [MSC, muscimol], the negative logarithm of the EC50 (pEC50) (in general, −log10 of the EC50, conventionally taken in molar units) is 5.05 in assay [1] and 1.90 in assay [2].
